# Measurements taken from PubChem BioAssay AID330 (DTP/NCI, 2004).
# “And” between values parts separate entries of the source, which are not always exact repeats. Identical values can stand only once. Toxic doses and inconclusive results are not listed.
# Tested on: P388 leukemia ip, CD2F1 mice, survival T/C
# Assay: NCI In Vivo Anticancer Drug Screen. Data for tumor model P388 Leukemia (intraperitoneal) in CD2F1 (CDF1) mice
# Settings: endpoint: median survival time, higher = longer survival
# In short: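 Mice carrying the transplanted tumor received test compound or vehicle. Survival was recorded in each group, and the value is the treated-group measurement divided by that of the vehicle-treated control group.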
# [1] = dose: 6.25 mg/kg/injection, schedule: Q01DX009 (ip), vehicle: Klucel (hydroxypropylcellulose) (HPC)
# [2] = dose: 12.5 mg/kg/injection, schedule: Q01DX009 (ip), vehicle: Klucel (hydroxypropylcellulose) (HPC)
# [3] = dose: 25.0 mg/kg/injection, schedule: Q01DX009 (ip), vehicle: Klucel (hydroxypropylcellulose) (HPC)
# [4] = dose: 60.0 mg/kg/injection, schedule: Q01DX005 (ip), vehicle: saline with Tween-80
# [5] = dose: 120.0 mg/kg/injection, schedule: Q01DX005 (ip), vehicle: saline with Tween-80
# [6] = dose: 240.0 mg/kg/injection, schedule: Q01DX005 (ip), vehicle: saline with Tween-80
# [7] = dose: 50.0 mg/kg/injection, schedule: Q01DX009 (ip), vehicle: saline
# [8] = dose: 100.0 mg/kg/injection, schedule: Q01DX009 (ip), vehicle: saline
# [9] = dose: 200.0 mg/kg/injection, schedule: Q01DX009 (ip), vehicle: saline
# [10] = dose: 50.0 mg/kg/injection, schedule: Q01DX009 (ip), vehicle: saline with Tween-80
# [11] = dose: 100.0 mg/kg/injection, schedule: Q01DX009 (ip), vehicle: saline with Tween-80
# [12] = dose: 200.0 mg/kg/injection, schedule: Q01DX009 (ip), vehicle: saline with Tween-80
# [13] = dose: 50.0 mg/kg/injection, schedule: Q01DX009 (ip), vehicle: Klucel (hydroxypropylcellulose) (HPC)
# [14] = dose: 100.0 mg/kg/injection, schedule: Q01DX009 (ip), vehicle: Klucel (hydroxypropylcellulose) (HPC)
# [15] = dose: 200.0 mg/kg/injection, schedule: Q01DX009 (ip), vehicle: Klucel (hydroxypropylcellulose) (HPC)
# [16] = dose: 25.0 mg/kg/injection, schedule: Q04DX003 (ip), vehicle: saline with Tween-80
# [17] = dose: 50.0 mg/kg/injection, schedule: Q04DX003 (ip), vehicle: saline with Tween-80
# [18] = dose: 25.0 mg/kg/injection, schedule: Q01DX009 (ip), vehicle: saline with Tween-80
smiles,measurement,setting,value
CCOP(=O)(N=Nc1cccnc1)OCC,T/C,"dose: 1.56 mg/kg/injection, schedule: Q01DX009 (ip), vehicle: water",107 % of control
same,T/C,"dose: 3.12 mg/kg/injection, schedule: Q01DX009 (ip), vehicle: water",101 % of control
same,T/C,"dose: 6.25 mg/kg/injection, schedule: Q01DX005 (ip), vehicle: water",100 % of control
same,T/C,"dose: 6.25 mg/kg/injection, schedule: Q01DX009 (ip), vehicle: water",101 % of control
same,T/C,"dose: 12.5 mg/kg/injection, schedule: Q01DX005 (ip), vehicle: water",96 % of control
same,T/C,"dose: 12.5 mg/kg/injection, schedule: Q01DX009 (ip), vehicle: water",112 % of control
same,T/C,"dose: 25.0 mg/kg/injection, schedule: Q01DX005 (ip), vehicle: water",102 % of control
same,T/C,"dose: 25.0 mg/kg/injection, schedule: Q01DX009 (ip), vehicle: water",117 % of control
same,T/C,"dose: 50.0 mg/kg/injection, schedule: Q01DX005 (ip), vehicle: water",103 % of control
same,T/C,"dose: 100.0 mg/kg/injection, schedule: Q01DX005 (ip), vehicle: water",103 % of control
CCSC(=Nc1nc2ccc([N+](=O)[O-])cc2s1)SCC,T/C,[1],104 % of control
same,T/C,[2],111 % of control
same,T/C,[3],98 % of control
CCOC(=O)C(C)NC(=O)OCc1ccccc1 (stereo not drawn),T/C,[4],101 % of control
same,T/C,[5],112 % of control
same,T/C,[6],116 % of control
Cn1nnnc1SCC1=C(C(=O)O)N2C(=O)C(NC(=O)C(OC=O)c3ccccc3)C2SC1 (stereo not drawn),T/C,[7],100 % of control
same,T/C,[8],97 % of control
same,T/C,[9],104 % of control
Cn1nnc2c1C(=O)c1ccccc1C2=O,T/C,[10],106 % of control
same,T/C,[11],111 % of control
same,T/C,[12],110 % of control
[Br][Rh][Br].[NH-]c1nc2ccc(Br)cc2s1.[NH-]c1nc2ccc(Br)cc2s1.[NH-]c1nc2ccc(Br)cc2s1.[NH-]c1nc2ccc(Br)cc2s1,T/C,[7],100 % of control
same,T/C,[8],98 % of control
same,T/C,[9],100 % of control
O=C1CC2(O)CSc3nc(=O)cc(n32)N1 (stereo not drawn),T/C,"dose: 50.0 mg/kg/injection, schedule: Q01DX005 (ip), vehicle: saline",107 % of control
same,T/C,"dose: 100.0 mg/kg/injection, schedule: Q01DX005 (ip), vehicle: saline",106 % of control
same,T/C,"dose: 200.0 mg/kg/injection, schedule: Q01DX005 (ip), vehicle: saline",94 % of control
[Cl][Ru]([Cl])([Cl])([Cl])([Cl])[Cl],T/C,"dose: 6.25 mg/kg/injection, schedule: Q04DX003 (ip), vehicle: saline",117 % of control and 123 % of control
same,T/C,"dose: 12.5 mg/kg/injection, schedule: Q04DX003 (ip), vehicle: saline",117 % of control and 123 % of control
same,T/C,"dose: 25.0 mg/kg/injection, schedule: Q04DX003 (ip), vehicle: saline",117 % of control
same,T/C,"dose: 50.0 mg/kg/injection, schedule: Q04DX003 (ip), vehicle: saline",123 % of control
same,T/C,"dose: 100.0 mg/kg/injection, schedule: Q04DX003 (ip), vehicle: saline",111 % of control
Nc1ncnc2c1c(-c1ccc(Cl)cc1)cn2-c1ccccc1,T/C,[4],100 % of control
same,T/C,[5],96 % of control
same,T/C,[6],90 % of control
Cc1onc(-c2ccccc2)c1C(C)(O)c1ccccc1 (stereo not drawn),T/C,"dose: 100.0 mg/kg/injection, schedule: Q01DX001 (ip), vehicle: Klucel (hydroxypropylcellulose) (HPC)",90 % of control
same,T/C,"dose: 200.0 mg/kg/injection, schedule: Q01DX001 (ip), vehicle: Klucel (hydroxypropylcellulose) (HPC)",93 % of control
same,T/C,"dose: 400.0 mg/kg/injection, schedule: Q01DX001 (ip), vehicle: Klucel (hydroxypropylcellulose) (HPC)",88 % of control
S=c1[nH]c2ccccc2n2cccc12,T/C,[13],108 % of control
same,T/C,[14],108 % of control
same,T/C,[15],106 % of control
CCCNc1nc2c(s1)c1c(O)c3c(O)c(C)c4c(c32)C(=O)C(C)(O/C=C\C(OC)C(C)C(OC(C)=O)C(C)C(O)C(C)C(O)C(C)/C=C/C=C(/C)C(=O)N1)O4 (stereo not drawn),T/C,[3],92 % of control
same,T/C,[13],107 % of control
same,T/C,[14],99 % of control
same,T/C,[15],100 % of control
O=Cc1cc2ccc3ccccc3c2[nH]1,T/C,"dose: 200.0 mg/kg/injection, schedule: Q01DX001 (ip), vehicle: saline with Tween-80",90 % of control
C[CH2][Sn]([c]1ccccc1)([c]1ccccc1)[c]1ccccc1,T/C,"dose: 12.5 mg/kg/injection, schedule: Q04DX003 (ip), vehicle: saline with Tween-80",95 % of control
same,T/C,[16],100 % of control
same,T/C,[17],100 % of control
C=CS(=O)(=O)c1ccc(C)cc1,T/C,"dose: 1.56 mg/kg/injection, schedule: Q01DX009 (ip), vehicle: Klucel (hydroxypropylcellulose) (HPC)",104 % of control
same,T/C,"dose: 3.13 mg/kg/injection, schedule: Q01DX009 (ip), vehicle: Klucel (hydroxypropylcellulose) (HPC)",99 % of control and 105 % of control
same,T/C,[1],121 % of control and 95 % of control
same,T/C,[2],99 % of control and 111 % of control
CN(C)CCC(=O)c1ccc(O)cc1,T/C,[7],98 % of control
same,T/C,[8],105 % of control
same,T/C,[9],106 % of control
O=C(O)C1(Cc2ccc(O)cc2)NCCS1 (stereo not drawn),T/C,"dose: 100.0 mg/kg/injection, schedule: Q04DX002 (ip), vehicle: Klucel (hydroxypropylcellulose) (HPC)",104 % of control
same,T/C,"dose: 200.0 mg/kg/injection, schedule: Q04DX002 (ip), vehicle: Klucel (hydroxypropylcellulose) (HPC)",104 % of control
CC(=O)C(F)(F)C(F)(F)C(F)(F)C(F)(F)C(C)=O,T/C,[4],99 % of control
same,T/C,[5],94 % of control
same,T/C,[6],103 % of control
CC(=O)O[C@@H]1[C@H](C)[C@@H]2CC(=O)O[C@@H]3[C@H](OC(=O)C=C(C)C)[C@H]4C(C)=CC(=O)[C@@H](OC(C)=O)[C@]4(C)[C@H]4[C@@]1(O)OC[C@@]342,T/C,"dose: 1.25 mg/kg/injection, schedule: Q01DX009 (ip), vehicle: Klucel (hydroxypropylcellulose) (HPC)",104 % of control
same,T/C,"dose: 2.5 mg/kg/injection, schedule: Q01DX009 (ip), vehicle: Klucel (hydroxypropylcellulose) (HPC)",107 % of control
same,T/C,"dose: 5.0 mg/kg/injection, schedule: Q01DX009 (ip), vehicle: Klucel (hydroxypropylcellulose) (HPC)",107 % of control
same,T/C,"dose: 10.0 mg/kg/injection, schedule: Q01DX009 (ip), vehicle: Klucel (hydroxypropylcellulose) (HPC)",107 % of control
Brc1ccc(Oc2ccc(Br)cc2)cc1,T/C,[13],100 % of control
same,T/C,[14],98 % of control
same,T/C,[15],92 % of control
O=C(Nc1ccc(NC(=O)C(Cl)(Cl)Cl)cc1)C(Cl)(Cl)Cl,T/C,[18],105 % of control
same,T/C,[10],91 % of control
same,T/C,[11],92 % of control
same,T/C,[12],99 % of control
CN(C)P(=O)(N=S=NC(C)(C)C)N(C)C,T/C,[7],109 % of control
same,T/C,[8],115 % of control
c1ccc(C2c3ccccc3C(c3ccccc3)(c3ccccc3)c3ccccc32)cc1,T/C,[2],91 % of control
same,T/C,[3],95 % of control
same,T/C,[13],94 % of control
same,T/C,[14],91 % of control
O=C(CCCc1ccc(N(CCCl)CCCl)cc1)OCCOc1ccccc1,T/C,"dose: 12.5 mg/kg/injection, schedule: Q01DX009 (ip), vehicle: saline with Tween-80",155 % of control
same,T/C,[18],223 % of control
same,T/C,[10],174 % of control and 200 % of control
O=C(NCCF)Oc1ccc([N+](=O)[O-])cc1,T/C,"dose: 6.25 mg/kg/injection, schedule: Q01DX005 (ip), vehicle: Klucel (hydroxypropylcellulose) (HPC)",106 % of control
same,T/C,"dose: 12.5 mg/kg/injection, schedule: Q01DX005 (ip), vehicle: Klucel (hydroxypropylcellulose) (HPC)",113 % of control and 115 % of control
same,T/C,"dose: 25.0 mg/kg/injection, schedule: Q01DX005 (ip), vehicle: Klucel (hydroxypropylcellulose) (HPC)",121 % of control and 122 % of control
c1cc2c3c(c1)nc(CCCc1nc4cccc5c4n1CCC5)n3CCC2,T/C,[16],95 % of control
same,T/C,[17],86 % of control
same,T/C,"dose: 100.0 mg/kg/injection, schedule: Q04DX003 (ip), vehicle: saline with Tween-80",90 % of control
COc1cccc2c1C(=O)c1c(O)c3c(c(O)c1C2=O)C[C@@](O)(C(=O)CO)C[C@@H]3OC1CC(NC(=S)Nc2ccc3ccccc3c2)C(O)C(C)O1 (stereo partly drawn),T/C,"dose: 3.13 mg/kg/injection, schedule: Q01DX009 (ip), vehicle: saline",92 % of control
same,T/C,"dose: 6.25 mg/kg/injection, schedule: Q01DX009 (ip), vehicle: saline",99 % of control
same,T/C,"dose: 12.5 mg/kg/injection, schedule: Q01DX009 (ip), vehicle: saline",99 % of control
same,T/C,"dose: 25.0 mg/kg/injection, schedule: Q01DX009 (ip), vehicle: saline",101 % of control
same,T/C,[7],108 % of control
